Reference: US7419960B2, “Hemiterpene glycosides with anti-platelet aggregation activities from Ilex pubescens” (Hong Kong Baptist University, priority 2005, dated 2008)
Marks after values point to notes of the source that are not given here.

Tested on: platelet-rich-plasma (PRP)
Assay: Shear-induced platelet aggregation (SIPA) in platelet-rich-plasma, determined by turbidity
Format: cell-based, Sprague-Dawley rats
Settings: 10 μM; for Platelet aggregation rate (%) ( X ± SD): n=10, rat PRP, shear stress 15 Pa for 360 seconds, 37° C., PPP = 100%, pre-shear PRP = 0% aggregation, Control 54.400 ± 8.592; for anti-platelet aggregation activity compared with salvianolic acid B and aspirin: high shear stress-induced platelet activation and aggregation test
Description: Preparation of platelet-rich-plasma (PRP): Sprague-Dawley rats (350-450 g) were used as blood donors to collect anticoagulated blood. Collected blood samples were immediately transferred into a plastic tube anticoagulant ( 1/10 volume of 3.8% trisodium citrate, pH 7.4). The platelet-rich-plasma (PRP) was then prepared by centrifuging the blood at 300 rpm for 15 minutes. The platelet concentration was adjusted to a level of 5×10^5/μl by addition of homologous platelet-poor-plasma (PPP) obtained after further centrifugation of blood at 1500 rpm for 15 minutes. For getting sufficient amount of PRP, at least two rats have to be sacrificed each time to obtain a pooled PRP sample.
Shear-induced platelet aggregation (SIPA): Adjusted PRP was divided into different groups according to the experimental protocol, mixed with 10 μM of pubescenosides A, B, aspirin and Salvianolic acid B. HAAke Rheometer RS 600 (Thermo Haake Corp., Ltd., Germany) with sensor C60/0.5° was employed as shear generator. The rheometer has the benefit of controlling shear stress and with an accuracy of 1 μm by the automatic adjustment of the gap between cone and plate. The shear program for PRP is: preheating sample at 37° C., increasing stress level from 0 to 15 Pa in the duration of 30 seconds, and then maintaining the stress level at 15 Pa for 360 seconds. After shearing, PRP was transferred to a platelet aggregometer (Chrono-Log aggregometer, Model 560 CA, Chrono-Log Corp., U.S.A) and SIPA was determined by turbidity. Since platelet-poor-plasma (PPP) and the pre-shear PRP were used as the turbidity scales of 100% and 0% aggregation, respectively, the aggregative degree of post-shear PRP could be measured.

Structure (SMILES) | Platelet aggregation rate (%) ( X ± SD) | anti-platelet aggregation activity compared with salvianolic acid B and aspirin
C=C(COC(=O)/C=C/c1ccc(O)c(O)c1)C(O)CO[C@@H]1O[C@H](CO)[C@@H](O)[C@H](O)[C@H]1O (stereo partly drawn) [Pubescenoside A, 4-caffeoyloxy-2-hydroxy-3-methylene-butane-1-O-β-D-glucopyranoside] | 36.550 ± 7.697*^▪▴ % | much stronger
C=C(CO)C(CO[C@@H]1OC(CO)[C@@H](O)C(O)C1O)OC(=O)/C=C/c1ccc(O)c(O)c1 (stereo partly drawn) [Pubescenoside B, 4-hydroxy-2-caffeoyloxy-3-methylene-butane-1-O-β-D-glucopyranoside] | 27.300 ± 10.263*^□ % | much stronger
O=C(/C=C/c1ccc(O)c2c1[C@H](C(=O)O[C@H](Cc1ccc(O)c(O)c1)C(=O)O)[C@@H](c1ccc(O)c(O)c1)O2)O[C@H](Cc1ccc(O)c(O)c1)C(=O)O [Salvianolic acid B, salvianolic acid B, reference compound] | 39.650 ± 8.577 % | 
CC(=O)Oc1ccccc1C(=O)O [Aspirin, aspirin, reference compound] | 44.700 ± 4.668 % | 
